Assay [1] relates to al integrin null Alport (DKO) mice. In words: Lifespan of ramipril-treated α1 integrin null Alport (DKO) mice. In kind it is in vivo. As to the method: (§1) Autosomal Alport mice or al integrin null Alport (DKO) mice (both on the 129 Sv background) were given straight water or treated with ramipril (10 mg/kg/day in drinking water) starting at 3 weeks of age. Proteinuria (FIG. 1) and lifespan (FIG. 2) were measured. We were surprised to see the improvement of lifespan from 20 weeks in ramipril-treated Alport mice to >30 weeks in ramipril-treated DKO mice. Tripling the lifespan of the Alport mouse model (which lives to on average 10 weeks of age as is evident in FIG. 2) is unprecedented in the Alport field. Integrin α1-null Alport (DKO) mice treated with ramipril live twice as long as untreated DKO mice and 3 times as long as untreated Alport mice. Animals from the indicated treatment groups were allowed to live until they lost >10% of their peak body weight and then euthanized (a humane endpoint, considered age of death). DKO mice show a 60% increase in lifespan. […] If translated to humans (as did ramipril treatment starting at a young age) this therapy could portend survival to 60-70 years of age for Alport patients with severe mutations.

In assay [2] the test system is DKO mice. Put plainly: Glomerular filtration rate, MediBeacon transdermal LED approach, DKO mice. The conditions noted are these: ramipril-treated DKO mice, 25 weeks relative to 20 weeks of age; two mice. It is filed as in vivo. As to the method: Glomerular filtration rates (GFR) were measured using the MediBeacon (St Louis, MO) transdermal LED approach, which allows serial measurements to be conducted in the same animals. […] Serial GFR measures were made using two ramipril-treated DKO mice. GFR measures were at 20 and 25 weeks of age. Additional mice at additional timepoints of measure (to 30 weeks) will be added as part of the research plan to establish statistical significance.

A further assay concerns α1 null Alport mice. In words: Proteinuria (Bradford assay, normalized to urinary creatinine) in α1 null Alport mice. It is filed as in vivo. To be noted: ramipril-treated vs untreated α1-null Alport mice; total protein normalized to urinary creatinine. As to the method:
FIG. 1. […] Urine was collected from the indicated treatment groups at the indicated ages. Total protein was measured by Bradford assay and normalized to urinary creatinine.
as §1

Assay [3] relates to DKO mice. Put plainly: Dual immunofluorescence of glomeruli for mesangial proteins in the GBM of DKO mice. In kind it is in vivo. An excerpt:
FIGS. 3A-3F are color dual immunofluorescence confocal images of glomeruli stained with antibodies against laminin α5 (a GBM marker) and laminin α2. FIGS. 3A-3C are untreated DKO mice. FIGS. 3D-3F are DKO mice treated with Ramipril. FIGS. 3A and 3D show laminin α5 data. FIGS. 3B and 3E show laminin α2 data. FIGS. 3C and 3F show a merge of the laminin α5 and laminin α2 data.
FIGS. 4A-4F are color dual immunofluorescence confocal images of glomeruli stained with antibodies against nidogen (a GBM marker) and collagen III. FIGS. 4A-4C are untreated DKO mice. FIGS. 4D-4F are DKO mice treated with Ramipril. FIGS. 4A and 4D show nidogen data. FIGS. 4B and 4E show collagen 3 α1 data. FIGS. […] show a merge of the nidogen and collagen 3 α1 data.
This evidence has obvious and important translational value. By preventing the invasion of the glomerular capillaries by mesangial filopodia, the deposition of mesangial proteins in the GBM is prevented. This prevents podocyte injury that is caused by the mesangial matrix.
If the ECM deposition in the GBM is indeed a significant contributor to glomerular pathology we would expect it would be delayed in the ramipril-treated DKO mice. To determine if this was indeed the case, we performed immunohistochemical analysis for laminin 211 dual stained with the GBM marker laminin α5. Specifically, Duan immunofluorescence analysis was performed on cryosections from 20 and 25 week old DKO/ramipril mice. Sections were immunostained using antibodies for laminin 211 and laminin α5 (a GBM marker). […] Between 20 and 25 weeks of age, however, GBM localization of laminin 211 became widespread as depicted in FIGS. 6A-6F. FIGS. 6A-6C are the 20-week data and FIGS. 6D-6F are the 25-week data.

Another assay relates to Autosomal Alport mice. Put plainly: Lifespan of ramipril-treated autosomal Alport mice. It is filed as in vivo. The conditions noted are these: ramipril 10 mg/kg/day in drinking water from 3 weeks of age, 129 Sv, humane endpoint >10% loss of peak body weight. The protocol:
as §1

A further assay deals with mesangial cells. In words: Filopodia formation in cultured mesangial cells. In kind it is cell-based. The source says: Thus, it appears that the al-null mesangial cells are refractive to activation of CDC42, which is consistent with the markedly attenuated effect on mesangial filopodial invasion, explaining why al integrin blockade attenuates ECM-mediated podocyte injury.

Where [4] appears, read: ramipril-treated DKO mice at 10 weeks of age, untreated DKO had a significant amount.

No end group written: not given here. A value given as a limit tells only on which side of the number the result lay.

In the case of `CCOC(=O)[C@H](CCc1ccccc1)N[C@@H](C)C(=O)N1[C@H](C(=O)O)C[C@@H]2CCC[C@@H]21` [ramipril], the “lifespan (age of death)” value in assay [1] (ramipril 10 mg/kg/day in drinking water from 3 weeks of age, α1 integrin null Alport (DKO) mice, 129 Sv) is listed as above 30 weeks. Moreover, in assay [1] (ramipril-treated DKO mice), the “lifespan relative to untreated Alport mice” value was 3 times and the “lifespan relative to untreated DKO mice” value is recorded as “twice as long”. The GFR result in the assay on DKO mice [2] is given as “marked reduction”. The proteinuria result in the assay with α1 null Alport mice is on record as “markedly reduced”. In addition, in the assay with DKO mice [3] (setting [4]), the “collagen III in the GBM” value is “no laminin 211 or collagen III in the GBM” and the “laminin 211 in the GBM” value is recorded as “no laminin 211 or collagen III in the GBM”. Further, the “GBM accumulation of laminin 211” value in the assay on DKO mice [3] (ramipril-treated DKO mice, before 20 weeks of age) is “did not observe any significant GBM accumulation”. Besides, the “GBM localization of laminin 211” value in the assay on DKO mice [3] (ramipril-treated DKO mice, between 20 and 25 weeks of age) is given as “widespread”. Besides, the “lifespan (age of death)” value in the assay on Autosomal Alport mice was found to be 20 weeks.
As to “endothelin-1: stimulus of filopodial formation in mesangial cells (CSCSSLMDKECVYFCHLDIIW; ends and bridges not checked; cysteine pairing not given here; UniProt P05305 53-73, looked up)”, the formation of filopodia entry in the assay on mesangial cells (wild type mesangial cells) is “activates the formation of filopodia”; with mesangial cells (α1-null mesangial cells), “do not respond”.

For the origin of these results see patent US20230374141A1, “COMBINATION THERAPY FOR ALPORT RENAL DISEASE” (Father Flanagan's Boys' Home Doing Business as Boys Town …, priority 2020, published 2023).
